Key:
[1] = test system: TNBS-induced colitis in mice; experiment: TNBS-induced colitis in mice; format: in vivo
Experimental: On Day 0 of the study TNBS (200 μL) is administered intra-colonically via a plastic catheter followed by BID dosing of the vehicle, reference or test compound for 2 or 4 days. During the study animals are weighed every day and stool observations are made and recorded as a score, based on stool consistency. At the time of sacrifice on Day 2 (or Day 4) the large intestine is removed and the length and weight recorded. Sections of the colon are taken for either MPO analysis to determine neutrophil infiltration or for histopathology involving scoring to determine disease severity.

GSK 3α = GSK 3α (Homo sapiens (Human), UniProt P49840); experiment: GSK 3α enzyme inhibition (Z-LYTE FRET); format: biochemical; conditions: read-out: IC50 Values for Enzyme Inhibition GSK3α
Chain of GSK 3α (P49840 whole entry): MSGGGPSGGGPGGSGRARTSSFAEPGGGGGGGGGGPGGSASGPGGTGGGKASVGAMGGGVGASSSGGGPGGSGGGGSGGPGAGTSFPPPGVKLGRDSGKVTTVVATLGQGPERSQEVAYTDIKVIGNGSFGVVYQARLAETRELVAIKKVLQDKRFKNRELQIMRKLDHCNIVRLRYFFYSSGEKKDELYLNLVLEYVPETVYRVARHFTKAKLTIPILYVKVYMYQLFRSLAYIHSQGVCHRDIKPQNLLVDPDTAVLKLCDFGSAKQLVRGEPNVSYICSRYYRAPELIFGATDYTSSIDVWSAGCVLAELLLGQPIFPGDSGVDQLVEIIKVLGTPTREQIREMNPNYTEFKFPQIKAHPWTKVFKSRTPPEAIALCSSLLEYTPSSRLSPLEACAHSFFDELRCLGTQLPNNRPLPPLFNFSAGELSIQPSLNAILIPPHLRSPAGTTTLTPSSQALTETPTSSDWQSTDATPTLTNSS
Experimental: (§1) The enzyme inhibitory activities of compounds disclosed herein are determined by FRET using synthetic peptides labelled with both donor and acceptor fluorophores (Z-LYTE, Invitrogen Ltd., Paisley, UK).
The following two assay variants can be used for determination of GSK 3α inhibition.
The inhibitory activities of compounds of the invention against the GSK 3α enzyme isoform (Invitrogen), are evaluated by determining the level of activation/phosphorylation of the target peptide. The GSK3-α protein (500 ng/mL, 2.5 μL) is mixed with the test compound (2.5 μL at either 4 μg/mL, 0.4 μg/mL, 0.04 μg/mL, or 0.004 μg/mL) for 2 hr at RT. The FRET peptide (8 μM, 2.5 μL), which is a phosphorylation target for GSK3α, and ATP (40 μM, 2.5 μL) are then added to the enzyme/compound mixture and the resulting mixture incubated for 1 hr. Development reagent (protease, 5 μL) is added for 1 hr prior to detection in a fluorescence microplate reader (Varioskan® Flash, ThermoFisher Scientific).
(§2) In all cases, the site-specific protease cleaves non-phosphorylated peptide only and eliminates the FRET signal. Phosphorylation levels of each reaction are calculated using the ratio of coumarin emission (donor) over fluorescein emission (acceptor), for which high ratios indicate high phosphorylation and low ratios indicate low phosphorylation levels. The percentage inhibition of each reaction is calculated relative to non-inhibited control and the 50% inhibitory concentration (IC50 value) is then calculated from the concentration-response curve.
This method follows the same steps as Method 1 above, but utilises a shorter period of mixing of the test compound (105 minutes instead of 2 hours) with the GSK3-α protein.

PBMCs [2] = experiment: LPS-induced TNFα/IL-8 release in PBMC cells; format: cell-based; conditions: Homo sapiens, LPS-stimulated PBMCs, IL-8, read-out: IC50 Values for Inhibition of Cytokine Release PBMCs IL-8
Experimental: Peripheral blood mononuclear cells (PBMCs) from healthy subjects are separated from whole blood using a density gradient (Lymphoprep, Axis-Shield Healthcare). The PBMCs are seeded in 96 well plates and treated with compounds at the desired concentration for 2 hours before addition of 1 ng/mL LPS (Escherichia Coli 0111:B4 from Sigma Aldrich) for 24 hours under normal tissue culture conditions (37° C., 5% CO2). The supernatant is harvested for determination of IL-8 and TNFα concentrations by sandwich ELISA (Duo-set, R&D systems) and read on the fluorescence microplate reader (Varioskan® Flash, ThermoFisher Scientific). The concentration at 50% inhibition (IC50) of IL-8 and TNFα production is calculated from the dose response curve.

HT29 cells = experiment: IL-1β-induced IL-8 release in HT29 cells; format: cell-based; conditions: Homo sapiens, HT-29, IL-1β-stimulated HT29 cells, read-out: IC50 Values for Inhibition of Cytokine Release HT29 cells IL-8
Experimental: HT29 cells, a human colon adenocarcinoma cell line, are plated in a 96 well plate (24 hrs) and pre-treated with compounds at the desired concentration for 2 hours before addition of 5 ng/mL of IL-1β (Abcam) for 24 hours. Supernatants are harvested for IL-8 quantification by Sandwich ELISA (Duo-set, R&D System). The IC50 is determined from the dose response curve.

Syk = Syk (Homo sapiens (Human), UniProt P43405); experiment: Syk enzyme inhibition (Z-LYTE FRET); format: biochemical
Experimental: as §1
(§3) The inhibitory activities of compounds of the invention against c-Src and Syk enzymes (Invitrogen), are evaluated in a similar fashion to that described hereinabove. The relevant enzyme (3000 ng/mL or 2000 ng/mL respectively, 2.5 μL) is incubated with the test compound (either 4 μg/mL, 0.4 μg/mL, 0.04 μg/mL, or 0.004 μg/mL, 2.5 μL each) for 2 hr at RT. The FRET peptides (8 μM, 2.5 μL), and appropriate ATP solutions (2.5 μL, 800 μM for c-Src, and 60 μM ATP for Syk) are then added to the enzymes/compound mixtures and incubated for 1 hr. Development reagent (protease, 5 μL) is added for 1 hr prior to detection in a fluorescence microplate reader (Varioskan® Flash, ThermoFisher Scientific).
as §2

[3] = molecular target: p38 MAPKα isoform (MAPK14) (Homo sapiens (Human), UniProt Q16539); experiment: p38 MAPKα enzyme inhibition (Z-LYTE FRET); format: biochemical
Chain of p38 MAPKα isoform (MAPK14) (Q16539 whole entry, canonical isoform): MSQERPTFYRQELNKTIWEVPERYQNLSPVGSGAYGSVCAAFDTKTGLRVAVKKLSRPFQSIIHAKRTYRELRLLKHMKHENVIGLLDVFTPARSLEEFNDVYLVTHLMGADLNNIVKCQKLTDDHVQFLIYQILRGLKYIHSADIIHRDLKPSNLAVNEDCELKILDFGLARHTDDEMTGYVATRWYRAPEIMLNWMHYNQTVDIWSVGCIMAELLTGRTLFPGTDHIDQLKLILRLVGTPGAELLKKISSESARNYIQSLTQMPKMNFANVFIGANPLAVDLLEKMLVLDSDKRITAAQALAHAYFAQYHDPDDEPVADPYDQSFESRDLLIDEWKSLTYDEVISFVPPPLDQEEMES
Experimental: as §1
The following two assay variants can be used for determination of p38 MAPKα inhibition.
The inhibitory activities of test compounds against the p38 MAPKα isoform (MAPK14: Invitrogen), are evaluated indirectly by determining the level of activation/phosphorylation of the down-stream molecule, MAPKAP-K2. The p38 MAPKα protein (80 ng/mL, 2.5 μL) is mixed with the test compound (2.5 μL of either 4 μg/mL, 0.4 μg/mL, 0.04 μg/mL or 0.004 μg/mL) for 2 hr at RT. […] The mixture is incubated for 1 hr at RT. Development reagent (protease, 5 μL) is added for 1 hr prior to detection in a fluorescence microplate reader (Varioskan® Flash, ThermoFisher Scientific).
This method follows the same steps as Method 1 above, but utilises a higher concentration of the p38 MAPKα protein (2.5 μL of 200 ng/mL protein instead of 2.5 μL of 80 ng/mL protein) for mixing with the test compound.
as §2

c-Src = c-Src (Homo sapiens (Human), UniProt P12931); experiment: c-Src enzyme inhibition (Z-LYTE FRET); format: biochemical
Chain of c-Src (P12931 whole entry, looked up): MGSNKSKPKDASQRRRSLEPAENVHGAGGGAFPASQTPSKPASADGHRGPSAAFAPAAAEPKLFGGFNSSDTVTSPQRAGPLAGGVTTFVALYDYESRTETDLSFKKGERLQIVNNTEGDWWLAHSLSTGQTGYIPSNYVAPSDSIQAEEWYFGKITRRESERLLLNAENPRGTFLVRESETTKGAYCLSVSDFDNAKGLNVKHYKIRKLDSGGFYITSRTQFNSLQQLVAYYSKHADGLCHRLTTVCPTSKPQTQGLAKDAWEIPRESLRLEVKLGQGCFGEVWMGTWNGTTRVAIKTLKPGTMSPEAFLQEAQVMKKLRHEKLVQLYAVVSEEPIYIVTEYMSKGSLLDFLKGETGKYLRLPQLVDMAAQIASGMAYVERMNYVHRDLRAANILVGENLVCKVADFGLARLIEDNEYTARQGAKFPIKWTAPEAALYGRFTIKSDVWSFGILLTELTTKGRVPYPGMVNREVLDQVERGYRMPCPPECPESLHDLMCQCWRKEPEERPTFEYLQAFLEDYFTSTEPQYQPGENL
Experimental: as §1, §3, §2

PBMCs [4] = experiment: IL-2 and IFN gamma release in CD3/CD28 stimulated PBMC cells; format: cell-based; conditions: Homo sapiens
Experimental: PBMCs from healthy subjects are separated from whole blood using a density gradient (Lymphoprep, Axis-Shield Healthcare). Cells are added to a 96 well plate pre-coated with a mixture of CD3/CD38 monoclonal antibodies (0.3 μg/mL eBioscience and 3 μg/mL BD Pharmingen respectively). Compound at the desired concentration is then added to the wells and the plate left for 3 days under normal tissue culture conditions. Supernatants are harvested and IL-2 and IFN gamma release determined by Sandwich ELISA (Duo-set, R&D System). The IC50 is determined from the dose response curve.

[5] = TNBS mice, conducted over 2 days

SMILES	Ulcer grade ([1]; TNBS mice, reference item, dose not given, vehicle 3.7 ± 0.3)	LP inflammation ([1]; TNBS mice, reference item, dose not given, vehicle 4.1 ± 0.2)	Ulcer grade ([1]; TNBS mice, 1 mg/kg oral BID, 2 days, vehicle 3.7 ± 0.3, non-diseased 0 ± 0)	LP inflammation ([1]; TNBS mice, 1 mg/kg oral BID, 2 days, vehicle 4.1 ± 0.2, non-diseased 0.3 ± 0.2)	Ulcer grade ([1]; TNBS mice, 5 mg/kg oral BID, 2 days, vehicle 3.7 ± 0.3, non-diseased 0 ± 0)	LP inflammation ([1]; TNBS mice, 5 mg/kg oral BID, 2 days, vehicle 4.1 ± 0.2, non-diseased 0.3 ± 0.2)	activity in in vivo model of colonic inflammation (histopathology analysis) [1, 5]	inflammatory cell infiltrate in the reticular and laminar propria zone [1, 5]	ulcer grade and epithelial repair compared to the vehicle control ([1]; dosed orally at 5 mg/kg)	IC50 (GSK 3α) [µM]	IC50 (PBMCs [2]) [nM]	IC50 (HT29 cells) [nM]	IC50 (Syk) [nM]	IC50 [3] [nM]	IC50 (c-Src) [nM]	IC50 (PBMCs [4]; IFNγ, read-out: IC50 Values for Inhibition of Cytokine Release PBMCs IFNγ) [nM]	IC50 (PBMCs [4]; IL-2, read-out: IC50 Values for Inhibition of Cytokine Release PBMCs IL-2) [nM]
Nc1ccc(O)c(C(=O)O)c1 [Example 5-ASA, 5-aminosalicylic acid, reference compound]	3.0 ± 0.5	2.3 ± 0.3															
COCCOCCOCCOc1cc(Nc2nccc(Oc3ccc(NC(=O)Nc4cc([Si](C)(C)C)nn4-c4ccc(C)cc4)c4ccccc34)n2)cc(OC)c1 [Example 21, 1-(4-((2-((3-Methoxy-5-(2-(2-(2-methoxyethoxyl)ethoxy)ethoxy)phenyl)amino)pyrimidin-4-yl)oxy)naphthalen-1-yl)-3-(1-(p-tolyl)-3-(trimethylsilyl)-1H-pyrazol-5-yl)urea]			3.3 ± 0.5	3.8 ± 0.3	3.2 ± 0.4	2.7 ± 0.3	significant activity	marked reduction	marked improvements	11.6	2	2	89	204	17	2	137

— patent US9783556B2, “Kinase inhibitors” (RESPIVERT LIMITED, priority 2012, dated 2017)
